Results published in PubChem BioAssay AID1963842 (Molecular Pharmacology Branch, DTP, NCI, 2024).

System: 677734-321-R-J1-PDC complex spheroid viability
Assay: Anticancer human tumor 677734-321-R-J1-PDC patient-derived soft tissue sarcoma cell line growth inhibition [POLQ]
Details: for IC50: curve of first compound; for viability, T/C: stronger effect = lower value
Description: Multicellular complex tumor spheroid response to Polymerase (POL) inhibitors (novobiocin, ART-558, RP6685) in combination with a variety of drugs and investigational agents in selected tumor cell lines
The POL inhibitors (novobiocin, ART-558, and RP6685) were evaluated both individually and in combination with standard of care and investigational anticancer small molecules within a complex spheroid model of solid tumors. . Complex spheroids include a stromal component modeled by human endothelial cells (HUVEC) and fibroblasts modeled by human mesenchymal stem cells (MSCs). The concentration ranges selected for each drug and investigational agent were based upon clinically achievable concentrations if the clinical Cmax of the agent was known.
Compounds. The drugs and investigational agents: novobiocin (NSC847541), ART-558 (NSC835418), RP-6685 (NSC848927), peposertib (NSC802822), ceralasertib (NSC780249), elimusertib (NSC800525), camonsertib (NSC841442), AZD-1390 (NSC803789), olaparib (NSC753686), talazoparib (NSC767125), rucaparib (NSC756644), sotorasib (NSC818433), MRTX-1133 (NSC836407), SN-38 (NSC673596), topotecan (NSC609699), epotoside (NSC141540), doxorubicin (NSC123127), gemcitabine (NSC613327), 5-fluorouracil (NSC19893), paclitaxel (NSC125973), vemurafenib (NSC761431), MSA-2 (NSC828583), SN-011 (NSC837082), adavosertib (NSC754352), prexasertib (NSC758257), carboplatin (NSC241240) and oxaliplatin (NSC266046), were obtained from the National Cancer Institute (NCI) Developmental Therapeutics Program Chemical Repository (21). The FDA-approved anticancer drug set is available from the Developmental Therapeutics Program at https://dtp.cancer.gov/organization/dscb/obtaining/. […] The stock solutions were prepared in dimethyl sulfoxide (DMSO, Sigma-Aldrich, St. Louis, MO, cat. D2650), except for the platinum compounds which were prepared in saline (Quality Biological, Gaithersburg, MD, cat. 114-055-101), at 800-fold the tested concentration and stored at -70 degrees C prior to their use. All drugs and investigational agents were tested over a range starting from a high concentration at or near the clinical Cmax and decreasing in half-log increments. If the clinical Cmax for an agent had not been determined, the highest concentration tested was 10 microM, except for SN-38, which was tested at a high concentration of 1 microM.
Cell Culture. All cells were maintained in an incubator at 37 degrees C and 5% CO2 with 95% humidity. The PDC lines were cultured according to standard operating procedures established by the NCI PDMR (https://pdmr.cancer.gov). Table 3 of the manuscript, lists the cell lines along with the number of the three cell types plated to form the mct-spheroids and media for tumor cell growth. After thawing, all PDC lines, except 997537-175-T-J1-PDC and 415267-285-R-J2-PDC, were cultured in Matrigel-coated flasks prepared with a working solution of 1X Ham's F-12 nutrient mix, without supplementation (Thermo Fisher Scientific, cat. 11765054), 100 U/mL penicillin-streptomycin (Thermo Fisher Scientific, cat. 15140122), and 2.5% Matrigel (Corning Inc., Corning, NY, cat. 354248) for the first three passages. The two PDC lines 997537-175-T-J1-PDC and 415267-285-R-J2-PDC were cultured on uncoated flasks. The 857933-349-R-J2-PDC line was cultured in 6C/Colon 1B media containing advanced DMEM/F-12 (Thermo Fisher Scientific, cat. 12634028), 10 mM HEPES (Thermo Fisher Scientific, cat. 15630080), 1X GlutaMAX supplement (Thermo Fisher Scientific, cat. 35050061), 0.1 mg/mL primocin (InvivoGen, San Diego, CA, cat. ant-pm-2), 10% defined fetal bovine serum, heat inactivated (HyClone Laboratories Inc., Logan, UT, cat. SH30070.03HI), 50% L-WRN conditioned media (ATCC, cat. CRL-3276), 1.25 mM N-Acetyl-L-cysteine (Sigma-Aldrich, cat. A9165), 10 mM nicotinamide (Sigma-Aldrich, cat. N0636), 1X B-27 supplement (Thermo Fisher Scientific, cat. 17504044), 1X N-2 supplement (Thermo Fisher Scientific, cat. […]

[1] = second compound 0.0316 µM, first compound 0.0316 µM
[2] = second compound 0.0316 µM, first compound 0.1 µM
[3] = second compound 0.0316 µM, first compound 0.316 µM
[4] = second compound 0.0316 µM, first compound 1 µM
[5] = second compound 0.1 µM, first compound 0.0316 µM
[6] = second compound 0.1 µM, first compound 0.1 µM
[7] = second compound 0.1 µM, first compound 0.316 µM
[8] = second compound 0.1 µM, first compound 1 µM
[9] = second compound 0.316 µM, first compound 0.0316 µM
[10] = second compound 0.316 µM, first compound 0.1 µM
[11] = second compound 0.316 µM, first compound 0.316 µM
[12] = second compound 0.316 µM, first compound 1 µM
[13] = second compound 1 µM, first compound 0.0316 µM
[14] = second compound 1 µM, first compound 0.1 µM
[15] = second compound 1 µM, first compound 0.316 µM
[16] = second compound 1 µM, first compound 1 µM
[17] = second compound 3.16 µM, first compound 0.0316 µM
[18] = second compound 3.16 µM, first compound 0.1 µM
[19] = second compound 3.16 µM, first compound 0.316 µM
[20] = second compound 3.16 µM, first compound 1 µM
[21] = second compound 10 µM, first compound 0.0316 µM
[22] = second compound 10 µM, first compound 0.1 µM
[23] = second compound 10 µM, first compound 0.316 µM
[24] = second compound 10 µM, first compound 1 µM
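Further: spheroids exposed to compounds for one week.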
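Wherever viability, T/C is given: 100% = vehicle DMSO treated spheroids.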

Structure (SMILES): C#Cc1c(F)ccc2cc(O)cc(-c3ncc4c(N5CC6CCC(C5)N6)nc(OCC56CCCN5CC(F)C6)nc4c3F)c12 (centres undefined) + COC1C(OC(N)=O)C(O)C(Oc2ccc3c(O)c(NC(=O)c4ccc(O)c(CC=C(C)C)c4)c(=O)oc3c2C)OC1(C)C
- IC50 (second compound 0.0316 µM): > 10 µM
- IC50 (second compound 0.1 µM): > 10 µM
- IC50 (second compound 0.316 µM): > 10 µM
- IC50 (second compound 1 µM): > 10 µM
- IC50 (second compound 3.16 µM): > 10 µM
- IC50 (second compound 10 µM): > 10 µM
- viability, T/C [1]: 108%
- viability, T/C [2]: 92.2%
- viability, T/C [3]: 104%
- viability, T/C [4]: 104%
- viability, T/C (second compound 0.0316 µM, first compound 3.16 µM): 111%
- viability, T/C (second compound 0.0316 µM, first compound 10 µM): 98%
- viability, T/C [5]: 100%
- viability, T/C [6]: 104%
- viability, T/C [7]: 95.1%
- viability, T/C [8]: 99.7%
- viability, T/C (second compound 0.1 µM, first compound 3.16 µM): 104%
- viability, T/C (second compound 0.1 µM, first compound 10 µM): 98.7%
- viability, T/C [9]: 108%
- viability, T/C [10]: 98.8%
- viability, T/C [11]: 102%
- viability, T/C [12]: 107%
- viability, T/C (second compound 0.316 µM, first compound 3.16 µM): 107%
- viability, T/C (second compound 0.316 µM, first compound 10 µM): 102%
- viability, T/C [13]: 104%
- viability, T/C [14]: 97.5%
- viability, T/C [15]: 111%
- viability, T/C [16]: 109%
- viability, T/C (second compound 1 µM, first compound 3.16 µM): 103%
- viability, T/C (second compound 1 µM, first compound 10 µM): 103%
- viability, T/C [17]: 103%
- viability, T/C [18]: 95.5%
- viability, T/C [19]: 101%
- viability, T/C [20]: 105%
- viability, T/C (second compound 3.16 µM, first compound 3.16 µM): 103%
- viability, T/C (second compound 3.16 µM, first compound 10 µM): 102%
- viability, T/C [21]: 112%
- viability, T/C [22]: 102%
- viability, T/C [23]: 103%
- viability, T/C [24]: 100%
- viability, T/C (second compound 10 µM, first compound 3.16 µM): 98.7%
- viability, T/C (second compound 10 µM, first compound 10 µM): 111%

Structure (SMILES): C=CCn1c(=O)c2cnc(Nc3ccc(N4CCN(C)CC4)cc3)nc2n1-c1cccc(C(C)(C)O)n1 + COC1C(OC(N)=O)C(O)C(Oc2ccc3c(O)c(NC(=O)c4ccc(O)c(CC=C(C)C)c4)c(=O)oc3c2C)OC1(C)C
- IC50 (second compound 0.0316 µM): > 1 µM
- IC50 (second compound 0.1 µM): > 1 µM
- IC50 (second compound 0.316 µM): > 1 µM
- IC50 (second compound 1 µM): > 1 µM
- IC50 (second compound 3.16 µM): > 1 µM
- IC50 (second compound 10 µM): > 1 µM
- viability, T/C (second compound 0.0316 µM, first compound 0.00316 µM): 110%
- viability, T/C (second compound 0.0316 µM, first compound 0.01 µM): 93.9%
- viability, T/C [1]: 101%
- viability, T/C [2]: 102%
- viability, T/C [3]: 104%
- viability, T/C [4]: 61.6%
- viability, T/C (second compound 0.1 µM, first compound 0.00316 µM): 105%
- viability, T/C (second compound 0.1 µM, first compound 0.01 µM): 106%
- viability, T/C [5]: 101%
- viability, T/C [6]: 99.3%
- viability, T/C [7]: 104%
- viability, T/C [8]: 72.4%
- viability, T/C (second compound 0.316 µM, first compound 0.00316 µM): 119%
- viability, T/C (second compound 0.316 µM, first compound 0.01 µM): 105%
- viability, T/C [9]: 103%
- viability, T/C [10]: 111%
- viability, T/C [11]: 111%
- viability, T/C [12]: 70.2%
- viability, T/C (second compound 1 µM, first compound 0.00316 µM): 108%
- viability, T/C (second compound 1 µM, first compound 0.01 µM): 102%
- viability, T/C [13]: 104%
- viability, T/C [14]: 112%
- viability, T/C [15]: 107%
- viability, T/C [16]: 66.3%
- viability, T/C (second compound 3.16 µM, first compound 0.00316 µM): 101%
- viability, T/C (second compound 3.16 µM, first compound 0.01 µM): 103%
- viability, T/C [17]: 104%
- viability, T/C [18]: 115%
- viability, T/C [19]: 106%
- viability, T/C [20]: 69.8%
- viability, T/C (second compound 10 µM, first compound 0.00316 µM): 109%
- viability, T/C (second compound 10 µM, first compound 0.01 µM): 110%
- viability, T/C [21]: 102%
- viability, T/C [22]: 106%
- viability, T/C [23]: 105%
- viability, T/C [24]: 76%
